≈ marks a conversion by molar mass, not a printed value. Blank lines part the entries; values can stand above or below the molecule they belong to. Calls of active or inactive are those of the source. The rule behind the calls is not given here.
Key:
Cricetinae gen. sp. [1] = assay: Oral dose of 2.5 mg/Kg (30 min prior to instillation of elastase) was tested for the inhibition of elastase-induced lung hemorrhage in hamster; Not active; type: functional, organism-based; conditions: Cricetulus griseus
Cricetinae gen. sp. [2] = assay: Oral dose of 20 mg/Kg (30 min prior to instillation of elastase) was tested for the inhibition of elastase-induced lung hemorrhage in hamster; type: functional, Cricetulus griseus
Neutrophil elastase = target: T1, Neutrophil elastase (Homo sapiens, UniProt P08246); assay: In vitro inhibition of human leukocyte elastase mediated hydrolysis of the synthetic substrate MeO-Suc-Ala-Ala-Pro-Val-pNA
T1 sequence (P08246 whole entry): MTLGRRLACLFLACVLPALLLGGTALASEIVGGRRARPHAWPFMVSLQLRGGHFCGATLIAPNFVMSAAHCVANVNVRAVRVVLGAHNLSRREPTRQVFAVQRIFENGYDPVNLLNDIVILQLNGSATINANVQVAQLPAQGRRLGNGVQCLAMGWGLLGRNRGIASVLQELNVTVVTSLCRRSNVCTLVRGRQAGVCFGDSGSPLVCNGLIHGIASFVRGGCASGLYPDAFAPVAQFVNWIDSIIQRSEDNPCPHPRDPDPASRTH

Cricetinae gen. sp. [3] = assay: Oral dose of 20 mg/Kg (30 min prior to instillation of elastase) was tested for the inhibition of elastase-induced lung hemorrhage in hamster; Not active; type: functional, organism-based; conditions: Cricetulus griseus
Cricetinae gen. sp. [4] = assay: Oral dose of 2.5 mg/Kg (30 min prior to instillation of elastase) was tested for the inhibition of elastase-induced lung hemorrhage in hamster; type: functional, Cricetulus griseus
Cricetinae gen. sp. [5] = assay: Oral dose of 2.5 mg/Kg (90 min prior to instillation of elastase) was tested for the inhibition of elastase-induced lung hemorrhage in hamster; type: functional, Cricetulus griseus
[6] = Partition coefficient (logP); type: physicochemical; conditions: octanol/water
[7] = Solubility of compound in 0.01 M sodium phosphate buffer at pH = […]; type: physicochemical; conditions: pH 7.4
[8] = Selectivity ratio for bovine pancreatic chymotrypsin and HLE
Cricetinae gen. sp. [9] = assay: Compound at an oral dose of 2.5 mg/Kg (90 min prior to instillation of elastase) was tested for the inhibition of elastase-induced lung hemorrhage in hamster; Not active; type: functional, organism-based; conditions: Cricetulus griseus
Cricetinae gen. sp. [10] = assay: Compound at an oral dose of 20 mg/Kg (90 min prior to instillation of elastase) was tested for the inhibition of elastase-induced lung hemorrhage in hamster; type: functional, Cricetulus griseus

Compound: CC(C)C(NC(=O)Cn1c(-c2cccs2)ncc(N)c1=O)B1OC(C)(C)C(C)(C)O1 (stereo not drawn)
inhibition (Cricetinae gen. sp. [1]): inactive
inhibition in vivo at 20 mg/kg (Cricetinae gen. sp. [2]): 50%
Ki (Neutrophil elastase): 4.9 nM

Compound: CC(C)C(NC(=O)Cn1c(-c2ccc(F)cc2)ncc(NC(=O)OCc2ccncc2)c1=O)C(=O)C(F)(F)F (stereo not drawn)
inhibition (Cricetinae gen. sp. [3]): inactive
Ki (Neutrophil elastase): 23 nM

Compound: CC(C)C(NC(=O)Cn1c(-c2ccc(F)cc2)ncc(NS(=O)(=O)C2CCCCC2)c1=O)C(=O)C(F)(F)F (stereo not drawn)
inhibition (Cricetinae gen. sp. [1]): inactive
Ki (Neutrophil elastase): 1.6 nM

Compound: CC(C)C(NC(=O)Cn1c(-c2cccs2)ncc(NC(=O)OC(C)(C)C)c1=O)C(=O)C(F)(F)F (stereo not drawn)
inhibition in vivo at 2.5 mg/kg (Cricetinae gen. sp. [4]): 50%
inhibition in vivo at 20 mg/kg (Cricetinae gen. sp. [2]): 92%
inhibition in vivo at 2.5 mg/kg (Cricetinae gen. sp. [5]): 33%
Ki (Neutrophil elastase): 27 nM

Compound: CC(C)C(NC(=O)Cn1c(-c2cccs2)ncc(N)c1=O)C(=O)C(F)(F)F (stereo not drawn)
inhibition in vivo at 2.5 mg/kg (Cricetinae gen. sp. [4]): 47%
inhibition in vivo at 20 mg/kg (Cricetinae gen. sp. [2]): 75%
inhibition in vivo at 2.5 mg/kg (Cricetinae gen. sp. [5]): 37%
Ki (Neutrophil elastase): 52 nM

Compound: CC(C)C(NC(=O)Cn1c(-c2ccc(N)cc2)ncc(NS(C)(=O)=O)c1=O)C(=O)C(F)(F)F (stereo not drawn)
inhibition (Cricetinae gen. sp. [3]): inactive

Compound: COC(=O)Nc1cnc(-c2cccs2)n(CC(=O)NC(C(=O)C(F)(F)F)C(C)C)c1=O (stereo not drawn)
inhibition (Cricetinae gen. sp. [9]): inactive
inhibition in vivo at 2.5 mg/kg (Cricetinae gen. sp. [4]): 49%
inhibition in vivo at 20 mg/kg (Cricetinae gen. sp. [2]): 80%
Ki (Neutrophil elastase): 42 nM

Compound: CCNc1cnc(-c2cccs2)n(CC(=O)NC(C(=O)C(F)(F)F)C(C)C)c1=O (stereo not drawn)
inhibition in vivo at 20 mg/kg (Cricetinae gen. sp. [2]): 52%
inhibition in vivo at 2.5 mg/kg (Cricetinae gen. sp. [5]): 32%
Ki (Neutrophil elastase): 26 nM

Compound: CC(C)C(NC(=O)Cn1c(C2CCCCC2)ncc(NC(=O)OCc2ccccc2)c1=O)C(=O)C(F)(F)F (stereo not drawn)
logP [6]: 2.9
inhibition (Cricetinae gen. sp. [3]): inactive
solubility [7]: 42 µg/mL (≈ 78.3 µM)
Ki (Neutrophil elastase): 57 nM

Compound: CNc1cnc(-c2ccc(F)cc2)n(CC(=O)NC(C(=O)C(F)(F)F)C(C)C)c1=O (stereo not drawn)
inhibition (Cricetinae gen. sp. [9]): inactive
inhibition in vivo at 2.5 mg/kg (Cricetinae gen. sp. [4]): 43%
inhibition in vivo at 20 mg/kg (Cricetinae gen. sp. [2]): 89%
Ki (Neutrophil elastase): 46 nM

Compound: CC(C)C(NC(=O)Cn1c(-c2ccc(F)cc2)ncc(NS(=O)(=O)C2CCCCC2)c1=O)B1OC(C)(C)C(C)(C)O1 (stereo not drawn)
inhibition (Cricetinae gen. sp. [9]): inactive
inhibition in vivo at 2.5 mg/kg (Cricetinae gen. sp. [4]): 31%
Ki (Neutrophil elastase): 0.21 nM

Compound: CC(C)C(NC(=O)Cn1c(-c2cccs2)ncc(NC(=O)OCC(F)(F)F)c1=O)C(=O)C(F)(F)F (stereo not drawn)
inhibition in vivo at 20 mg/kg (Cricetinae gen. sp. [10]): 60%
inhibition in vivo at 2.5 mg/kg (Cricetinae gen. sp. [5]): 41%
Ki (Neutrophil elastase): 48 nM

Compound: CSC(=O)Nc1cnc(-c2ccc(F)cc2)n(CC(=O)NC(C(=O)C(F)(F)F)C(C)C)c1=O (stereo not drawn)
inhibition in vivo at 2.5 mg/kg (Cricetinae gen. sp. [5]): 50%
Ki (Neutrophil elastase): 23 nM

Compound: CC(C)C(NC(=O)Cn1c(-c2ccc(F)cc2)ncc(N)c1=O)B1OC(C)(C)C(C)(C)O1 (stereo not drawn)
inhibition (Cricetinae gen. sp. [1]): inactive
inhibition in vivo at 20 mg/kg (Cricetinae gen. sp. [2]): 39%
Ki (Neutrophil elastase): 6.2 nM

Compound: CC(C)C(NC(=O)Cn1c(-c2cc(F)cc(F)c2)ncc(N)c1=O)C(=O)C(F)(F)F (stereo not drawn)
inhibition in vivo at 20 mg/kg (Cricetinae gen. sp. [2]): 72%
inhibition in vivo at 2.5 mg/kg (Cricetinae gen. sp. [5]): 45%
Ki (Neutrophil elastase): 270 nM

Compound: CC(C)C(NC(=O)Cn1c(-c2ccccc2)ncc(NC(=O)C(F)(F)F)c1=O)C(=O)C(F)(F)F (stereo not drawn)
inhibition (Cricetinae gen. sp. [9]): inactive
inhibition in vivo at 2.5 mg/kg (Cricetinae gen. sp. [4]): 37%
inhibition in vivo at 20 mg/kg (Cricetinae gen. sp. [2]): 73%
Ki (Neutrophil elastase): 94 nM

Compound: CC(C)C(NC(=O)Cn1c(-c2cc(C(F)(F)F)cc(C(F)(F)F)c2)ncc(NC(=O)OCc2ccccc2)c1=O)C(=O)C(F)(F)F (stereo not drawn)
inhibition (Cricetinae gen. sp. [3]): inactive
Ki (Neutrophil elastase): 72 nM

Compound: COC(=O)Nc1cnc(-c2ccc(F)cc2)n(CC(=O)NC(B2OC(C)(C)C(C)(C)O2)C(C)C)c1=O (stereo not drawn)
inhibition (Cricetinae gen. sp. [1]): inactive
Ki (Neutrophil elastase): 7.7 nM

Compound: CSC(=O)Nc1cnc(-c2ccccc2)n(CC(=O)NC(C(=O)C(F)(F)F)C(C)C)c1=O (stereo not drawn)
inhibition in vivo at 20 mg/kg (Cricetinae gen. sp. [10]): 57%
inhibition in vivo at 2.5 mg/kg (Cricetinae gen. sp. [5]): 32%
Ki (Neutrophil elastase): 16 nM

Compound: CC(C)C(NC(=O)Cn1c(-c2cccs2)ncc(NC=O)c1=O)C(=O)C(F)(F)F (stereo not drawn)
inhibition in vivo at 20 mg/kg (Cricetinae gen. sp. [10]): 58%
inhibition in vivo at 2.5 mg/kg (Cricetinae gen. sp. [5]): 37%
Ki (Neutrophil elastase): 100 nM

Compound: Cc1cncc(C)c1COC(=O)Nc1cnc(-c2ccc(F)cc2)n(CC(=O)NC(B2OC(C)(C)C(C)(C)O2)C(C)C)c1=O (stereo not drawn)
inhibition (Cricetinae gen. sp. [1]): inactive
Ki (Neutrophil elastase): 0.96 nM

Compound: COC(=O)Nc1cnc(-c2ccc(F)cc2)n(CC(=O)NC(C(=O)C(F)(F)F)C(C)C)c1=O (stereo not drawn)
inhibition in vivo at 2.5 mg/kg (Cricetinae gen. sp. [4]): 39%
inhibition in vivo at 20 mg/kg (Cricetinae gen. sp. [2]): 73%

Continued, in another order:

Ki (Neutrophil elastase): 9 nM
Compound: CC(C)C(NC(=O)Cn1c(-c2ccc(NC=O)cc2)ncc(NC(=O)OCc2ccccc2)c1=O)C(=O)C(F)(F)F (stereo not drawn)
inhibition (Cricetinae gen. sp. [3]): inactive

Ki (Neutrophil elastase): 22 nM
Compound: CC(C)C(NC(=O)Cn1c(-c2ccc(F)cc2)ncc(NC(=O)OCc2ccccn2)c1=O)C(=O)C(F)(F)F (stereo not drawn)
inhibition (Cricetinae gen. sp. [3]): inactive

logP [6]: 2.2
solubility [7]: 6.9 µg/mL (≈ 12.6 µM)
Compound: CC(C)C(NC(=O)Cn1c(-c2ccc(F)cc2)ncc(NC(=O)OCc2ccccc2)c1=O)C(=O)C(F)(F)F (stereo not drawn)
inhibition in vivo at 20 mg/kg (Cricetinae gen. sp. [2]): 54%

logP [6]: > 4
Compound: CC(C)C(NC(=O)Cn1c(-c2ccccc2)ccc(NC(=O)OCc2ccccc2)c1=O)C(=O)C(F)(F)F (stereo not drawn)
inhibition (Cricetinae gen. sp. [3]): inactive

Ratio [8]: 406
Ki (Neutrophil elastase): 17 nM
Compound: CC(C)C(NC(=O)Cn1c(-c2ccc([N+](=O)[O-])cc2)ncc(NC(=O)OCc2ccccc2)c1=O)C(=O)C(F)(F)F (stereo not drawn)
inhibition (Cricetinae gen. sp. [3]): inactive

Ratio [8]: 322
Ki (Neutrophil elastase): 18 nM
Compound: CC(C)C(NC(=O)Cn1c(-c2ccc(Cl)cc2)ncc(NC(=O)OCc2ccccc2)c1=O)C(=O)C(F)(F)F (stereo not drawn)
inhibition (Cricetinae gen. sp. [3]): inactive

Ki (Neutrophil elastase): 43 nM
Compound: CC(C)C(NC(=O)Cn1c(-c2ccc(NC(=O)C(F)(F)F)cc2)ncc(NC(=O)OCc2ccccc2)c1=O)C(=O)C(F)(F)F (stereo not drawn)
inhibition (Cricetinae gen. sp. [3]): inactive

Ratio [8]: 272
Ki (Neutrophil elastase): 8.1 nM
Compound: COc1ccc(-c2ncc(NC(=O)OCc3ccccc3)c(=O)n2CC(=O)NC(C(=O)C(F)(F)F)C(C)C)cc1 (stereo not drawn)
inhibition (Cricetinae gen. sp. [3]): inactive

logP [6]: 2.3
solubility [7]: 25 µg/mL (≈ 41.8 µM)
Ratio [8]: 164
Ki (Neutrophil elastase): 42 nM
Compound: CC(C)C(NC(=O)Cn1c(-c2ccc(C(F)(F)F)cc2)ncc(NC(=O)OCc2ccccc2)c1=O)C(=O)C(F)(F)F (stereo not drawn)
inhibition (Cricetinae gen. sp. [3]): inactive

Ki (Neutrophil elastase): 40 nM
Compound: CC(C)C(NC(=O)Cn1c(-c2ccccc2)ncc(NC(=O)OCC(F)(F)F)c1=O)C(=O)C(F)(F)F (stereo not drawn)
inhibition in vivo at 20 mg/kg (Cricetinae gen. sp. [10]): 47%
inhibition in vivo at 2.5 mg/kg (Cricetinae gen. sp. [5]): 39%

logP [6]: 2
solubility [7]: 48 µg/mL (≈ 89.5 µM)
Ratio [8]: 162
Ki (Neutrophil elastase): 11 nM
Compound: CC(C)C(NC(=O)Cn1c(-c2cccs2)ncc(NC(=O)OCc2ccccc2)c1=O)C(=O)C(F)(F)F (stereo not drawn)
inhibition in vivo at 20 mg/kg (Cricetinae gen. sp. [2]): 57%

logP [6]: 2.1
Compound: CC(C)C(NC(=O)Cn1c(-c2ccccc2)ncc(NC(=O)OCc2ccccc2)c1=O)C(=O)C(F)(F)F (stereo not drawn)
inhibition in vivo at 20 mg/kg (Cricetinae gen. sp. [2]): 54%

logP [6]: 2.6
solubility [7]: 40 µg/mL (≈ 80.6 µM)
Ratio [8]: 100
Ki (Neutrophil elastase): 170 nM
Compound: CC(C)c1ncc(NC(=O)OCc2ccccc2)c(=O)n1CC(=O)NC(C(=O)C(F)(F)F)C(C)C (stereo not drawn)
inhibition (Cricetinae gen. sp. [3]): inactive

logP [6]: 1.3
solubility [7]: 580 µg/mL (≈ 1090 µM)
Ratio [8]: 245
Ki (Neutrophil elastase): 33 nM
Compound: CC(C)C(NC(=O)Cn1c(-c2cccnc2)ncc(NC(=O)OCc2ccccc2)c1=O)C(=O)C(F)(F)F (stereo not drawn)
inhibition in vivo at 20 mg/kg (Cricetinae gen. sp. [2]): 59%

Ki (Neutrophil elastase): 3.6 nM
Compound: CC(C)C(NC(=O)Cn1c(-c2ccc(N)cc2)ncc(NC(=O)OCc2ccccc2)c1=O)C(=O)C(F)(F)F (stereo not drawn)
inhibition (Cricetinae gen. sp. [3]): inactive

Ratio [8]: 230
Ki (Neutrophil elastase): 20 nM
Compound: CC(C)C(NC(=O)Cn1c(-c2cc(F)cc(F)c2)ncc(NC(=O)OCc2ccccc2)c1=O)C(=O)C(F)(F)F (stereo not drawn)
inhibition in vivo at 20 mg/kg (Cricetinae gen. sp. [2]): 43%
